In brackets after ≈: the same amount, converted by molar mass.
Key:
[1] = test system: rat liver homogenate; assay: Lipid peroxidation assay; assay type: biochemical
Method: The level of lipid peroxidation was measured by the method of Ohkawa et al (1979). Briefly, 1 mg/mL spice extract stock solution was prepared in distilled water. Various concentrations (1-10 μg/mL) of extract were incubated with 0.1 mL rat liver homogenate (25%) containing 30 mM KCl, Tris-HCl buffer (0.04 M, pH 7.0), ascorbic acid (0.06 mM) and ferrous ion (0.16 mM) in a total volume 0.5 mL for 1 hr. After incubation, 0.4 mL of reaction mixture was treated with 0.2 mL SDS (8.1%), 1.5 mL TBA (0.8%) and 1.5 mL acetic acid (20%, pH 3.5) distilled water were kept for 1 hr in a boiling water bath at 100° C. […] Absorbance of the clear supernatant was measured at 532 nm against pyridine:butanol. Percent inhibition of lipid peroxidation was calculated using the equation: […]

[2] = DPPH assay; assay type: biochemical
Method: Briefly, various concentrations of the extract were added to 1 mL of freshly prepared DPPH solution in methanol. The reaction mixture was made up to 2 mL with methanol; incubated for 20 minutes; read at 515 nm against methanol as reference. The percentage inhibition was calculated and concentration needed for 50% inhibition was found out. […] Mix well and this was given to five volunteer for sensory evaluation. The sample was first de-oiled and its antioxidant level was check using DPPH, ABTS, & SOD method comparing with plain potato chips.

[3] = Hydroxyl radical scavenging activity; assay type: biochemical
Method: Hydroxyl radical scavenging activity of the extract was measured by following the method of Elizabeth and Rao, (1990). Briefly, 1 mg/mL spice extract stock solution was prepared in distilled water and mixed with the reaction mixture containing deoxyribose (2.8 mM), ferric chloride (0.1 mM) EDTA (0.1 mM), H2O2 (1 mM), ascorbate (0.1 mM), and KH2PO4—KOH (20 mM, pH 7.4) at various concentrations (1-10 μg/mL) to a total volume of 1 mL and incubated for 1 hr at 37° C. Absorbance of each solution was measured at 530 nm using a UV/VIS spectrophotometer against the distilled water as reference. From the absorbance of the control and test solution, percentage inhibition was calculated.

[4] = ABTS assay; assay type: biochemical
Method: Keep ABTS solution at Room temperature for 16 hours, and then store it at 4° C. (if not use). Take 500 μL, ABTS solution and add 50 mL PBS; adjust the OD to 0.7-0.8 against PBS as reference at 734 nm. Take 1 mL ABTS solution with different varies concentration of the extracts (1 mg/mL spice extract stock solution was prepared in distilled water) and made up to 2 mL with PBS. Keep the sample at room temperature for 6 minutes. The absorbance was measured at 734 nm. The results were calculated from the slopes of reaction curves obtained by plotting the absorbance Vs time. […] Mix well and this was given to five volunteer for sensory evaluation. The sample was first de-oiled and its antioxidant level was check using DPPH, ABTS, & SOD method comparing with plain potato chips.

[5] = Superoxide radical anion scavenging activity; assay type: biochemical
Method: McCord and Fridovich, (1969), measure super oxide radical anion scavenging activity. Briefly, 1 mg/mL spice extract stock solution was prepared in distilled water. The reaction mixture contained 200 μL KCN [dissolved in EDTA (6 mM)], 50 μL riboflavin (0.12 mM), 100 μL NBT (1.5 mM) and various concentrations (1-10 μg/mL) of the extract and add Phosphate buffer made up to 3 mL. The tubes containing the reaction mixture were uniformly illuminated with an incandescent lamp for 15 minutes. The absorbance was measured at 530 nm before and after the illumination. Percent inhibition of superoxide radical was calculated using the equation: […] Mix well and this was given to five volunteer for sensory evaluation. The sample was first de-oiled and its antioxidant level was check using DPPH, ABTS, & SOD method comparing with plain potato chips.

[6] = test system: carrageenan induced paw oedema; assay: In vivo anti-inflammatory potential, carrageenan induced paw oedema model; parameters: species or system Swiss albino mice; conditions: reference drug at dose 50 mg/kg body weight
Method: The animals for experimental model were taken from small breeding station of Amala Cancer Research Centre, Thrissur (Registration No. 149/99/CPCSEA) and […] Institute of Medical Science, Kochi (Registration No. 527/02/a/CPCSEA). The animals were kept in air-conditioned room at 22±2° C. and relative humidity […] with 12 hours day and light cycle, fed with normal mouse chow, a natural ingredient diet (Sai Feeds, India) and water ad libitum. All animal experiments were performed according to the rules and regulations of the Committee for the Purpose of Control and Supervision of Experiments on Animals (CPCSEA), Government of India. Five groups each contained six Male Swiss albino mice (25-30 g) in each group were injected with 25 μL of 1% suspension of carrageenan in 0.1% carboxy methylcellulose (CMC) sub-planetary into right hind paw. Paw volume was measured at various time intervals such as, paw volume before inflammation induction, then for 1, 2, 3, 4, 5 and 24 hours after carrageenan administration using a vernier calliper. Clove extract at doses 25, 50 and 100 mg/kg body weight was administered (orally) 1 hour prior to carrageenan injection. […] The percentages of inhibition were calculated according to the following formula. […] Where, VT-Paw oedema at various time intervals and Vo-Initial paw oedema [table]

| Structure (SMILES) | IC50, lipid peroxidation [1] [µg/mL] | IC50, DPPH [2] [µg/mL] | IC50, hydroxyl radical scavenging [3] [µg/mL] | IC50, ABTS [4] [µg/mL] | IC50, superoxide radical anion scavenging [5] [µg/mL] | inhibition of paw oedema [6] [%] |
| --- | --- | --- | --- | --- | --- | --- |
| O=C1O[C@H]([C@@H](O)CO)C(O)=C1O [Vitamin C] | 375 (≈ 2130 µM) | 14 (≈ 79.5 µM) | 1550 (≈ 8800 µM) | 2.25 (≈ 12.8 µM) | 1900 (≈ 10800 µM) | – |
| O=C(O)Cc1ccccc1Nc1c(Cl)cccc1Cl [diclofenac, Diclofenac] | – | – | – | – | – | 56.70 |

— US10610562B2, “Instant water soluble bioactive dietary phytonutrients composition of spice/herb extracts and a process for its preparation” (AKAY FLAVOURS & AROMATICS PVT. LTD, priority 2014, dated 2020)
